Patent US20250215029A1 (Recludix Pharma, Inc., priority 2022, published 2025)
pIC50: −log10 of the molar value.

Legend:
[1] = molecular target: T1, Recombinant STAT6 protein (STAT6 (W123-T658)) (Homo sapiens, UniProt P42226); test: STAT6 Fluorescence Polarization (FP) Assay; assay type: binding; conditions: STAT6 (W123-T658) 250 nM, probe 5-FAM-Ap[…]-NH2 2 nM, 45-minute incubation; read-out: STAT6 (FP assay IC50 class)
T1 construct: Recombinant STAT6 protein (STAT6 (W123-T658))
T1 sequence (P42226 123-658): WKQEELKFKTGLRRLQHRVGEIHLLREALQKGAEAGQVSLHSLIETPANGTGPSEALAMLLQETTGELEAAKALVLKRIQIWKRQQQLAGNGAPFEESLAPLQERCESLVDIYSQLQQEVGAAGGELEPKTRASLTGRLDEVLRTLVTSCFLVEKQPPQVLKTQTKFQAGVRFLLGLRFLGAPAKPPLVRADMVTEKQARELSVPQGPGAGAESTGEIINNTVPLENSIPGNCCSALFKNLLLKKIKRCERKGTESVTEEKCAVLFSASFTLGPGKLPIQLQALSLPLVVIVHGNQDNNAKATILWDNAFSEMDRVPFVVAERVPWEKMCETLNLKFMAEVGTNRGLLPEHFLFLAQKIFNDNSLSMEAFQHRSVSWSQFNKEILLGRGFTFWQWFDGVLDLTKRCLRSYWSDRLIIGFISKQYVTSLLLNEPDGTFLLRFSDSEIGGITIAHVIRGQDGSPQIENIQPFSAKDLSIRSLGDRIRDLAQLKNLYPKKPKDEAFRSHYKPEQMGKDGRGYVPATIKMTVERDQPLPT
Procedure, shortened: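 Protein-probe mix (250 nM STAT6 W123-T658, 2 nM 5-FAM-pTyr peptide) in 10 mM HEPES pH 7.4, 50 mM NaCl, 1 mM EDTA, 0.05% Tween 20, 2 mM DTT; added to compound dilution series, 1% DMSO final; 45 min RT; FP read; IC50 via nonlinear regression.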

[2] = molecular target: T2, Recombinant STAT3 protein (STAT3 (G127-I722)) (Homo sapiens, UniProt P40763); test: STAT3 Fluorescence Polarization (FP) Assay; assay type: binding; conditions: STAT3 (G127-I722) 25 nM, probe 5-FAM-GpYLPQTV-NH2 2 nM, 45-minute incubation; read-out: STAT3 (FP assay IC50 class)
T2 construct: Recombinant STAT3 protein (STAT3 (G127-I722))
Procedure, shortened: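 Displacement of a fluorescent phosphotyrosine peptide (5-FAM-GpYLPQTV-NH2, 2 nM) from 25 nM recombinant STAT3 G127-I722 was monitored by FP after 45 min at room temperature.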

T2 sequence (P40763 127-722): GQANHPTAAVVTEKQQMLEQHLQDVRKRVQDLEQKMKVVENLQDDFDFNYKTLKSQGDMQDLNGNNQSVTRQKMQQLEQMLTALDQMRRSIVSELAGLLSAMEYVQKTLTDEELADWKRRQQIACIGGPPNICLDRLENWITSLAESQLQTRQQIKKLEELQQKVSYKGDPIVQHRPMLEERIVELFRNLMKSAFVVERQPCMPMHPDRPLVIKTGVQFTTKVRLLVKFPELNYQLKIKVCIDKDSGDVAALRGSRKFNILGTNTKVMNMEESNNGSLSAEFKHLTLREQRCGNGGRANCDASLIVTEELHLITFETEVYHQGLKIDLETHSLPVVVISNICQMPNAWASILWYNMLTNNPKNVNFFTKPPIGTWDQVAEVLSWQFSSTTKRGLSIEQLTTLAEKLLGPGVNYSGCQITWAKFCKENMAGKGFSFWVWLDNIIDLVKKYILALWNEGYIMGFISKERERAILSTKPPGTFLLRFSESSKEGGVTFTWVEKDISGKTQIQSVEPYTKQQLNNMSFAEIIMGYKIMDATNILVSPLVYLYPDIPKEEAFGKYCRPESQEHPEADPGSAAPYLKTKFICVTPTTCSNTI

| SMILES | pIC50 [1] | pIC50 [2] |
| --- | --- | --- |
| O=C(N[C@H]1CCC[C@H]2CC[C@@H](C(=O)N3CC(n4ncc5ccccc54)C3)N2C1=O)c1cc2cc(C(F)(F)P(=O)(O)O)ccc2s1 [Compound 821, ((2-(((3S,6S,9aS)-3-(3-(1H-indazol-1-yl)azetidine-1-carbonyl)-5-oxooctahydro-1H-pyrrolo[1,2-a]azepin-6-yl)carbamoyl)benzo [b]thiophen-5-yl)difluoromethyl) phosphonic acid] | 5.52 to 6.52 | 6.00 to 7.00 |
| COC1(CS(C)(=N)=O)CN(C(=O)[C@@H]2CC[C@@H]3CCC[C@H](NC(=O)c4cc5cc(C(F)(F)P(=O)(O)O)ccc5s4)C(=O)N32)C1 (stereo partly drawn) [Compound 822, (difluoro(2-(((3S,6S,9aS)-3-(3-methoxy-3-((S-methylsulfonimidoy 1)methyl)azetidine-1-carbonyl)-5-oxooctahydro-1H-pyrrolo[1,2-a]azepin-6-yl)carbamoyl)benzo [b]thiophen-5-yl)methyl) phosphonic acid] | 4.52 to 5.52 | 6.00 to 7.00 |
| CC(C)OC1(c2nncn2C)CN(C(=O)[C@@H]2CC[C@@H]3CCC[C@H](NC(=O)c4cc5cc(C(F)(F)P(=O)(O)O)ccc5s4)C(=O)N32)C1 [Compound 823, (difluoro(2-(((3S,6S,9aS)-3-(3-isopropoxy-3-(4-methyl-4H-1,2,4-triazol-3-yl)azetidine-1-carbonyl)-5-oxooctahydro-1H-pyrrolo[1,2-a]azepin-6-yl)carbamoyl)benzo [b]thiophen-5-yl)methyl) phosphonic acid] | 4.52 to 5.52 | 6.00 to 7.00 |
| N#Cc1ccnc(C2CN(C(=O)[C@@H]3CC[C@@H]4CCC[C@H](NC(=O)c5cc6cc(C(F)(F)P(=O)(O)O)ccc6s5)C(=O)N43)C2)n1 [Compound 824, ((2-(((3S,6S,9aS)-3-(3-(4-cyanopyrimidin-2-yl)azetidine-1-carbonyl)-5-oxooctahydro-1H-pyrrolo[1,2-a]azepin-6-yl)carbamoyl)benzo [b]thiophen-5-yl)difluoromethyl) phosphonic acid] | 5.52 to 6.52 | > 7.00 |
| O=C(N[C@H]1CCCC[C@H]2CC[C@@H](C(=O)NCc3ccc4nccnc4c3)N2C1=O)c1cc2cc(C(F)(F)P(=O)(O)O)ccc2s1 [Compound 825, (difluoro(2-(((3S,6S,10aS)-5-oxo-3-((quinoxalin-6-ylmethyl)carbamoyl)decahydropyrrolo [1,2-a]azocin-6-yl)carbamoyl)benzo [b]thiophen-5-yl)methyl) phosphonic acid] | 5.52 to 6.52 | 6.00 to 7.00 |
| COc1cccnc1C1CN(C(=O)[C@@H]2CC[C@@H]3CCC[C@H](NC(=O)c4cc5cc(C(F)(F)P(=O)(O)O)ccc5s4)C(=O)N32)C1 [Compound 826, (difluoro(2-(((3S,6S,9aS)-3-(3-(3-methoxypyridin-2-yl)azetidine-1-carbonyl)-5-oxooctahydro-1H-pyrrolo[1,2-a]azepin-6-yl)carbamoyl)benzo [b]thiophen-5-yl)methyl) phosphonic acid] | 5.52 to 6.52 | 6.00 to 7.00 |
| CN=S(C)(=O)CC1(OC)CN(C(=O)[C@@H]2CC[C@@H]3CCC[C@H](NC(=O)c4cc5cc(C(F)(F)P(=O)(O)O)ccc5s4)C(=O)N32)C1 (stereo partly drawn) [Compound 827, ((2-(((3S,6S,9aS)-3-(3-((N,S-dimethyl-sulfonimidoyl)methyl)-3-methoxyazetidine-1-carbonyl)-5-oxooctahydro-1H-pyrrolo[1,2-a]azepin-6-yl)carbamoyl)benzo [b]thiophen-5-yl)difluoromethyl) phosphonic acid] | 4.52 to 5.52 | 6.00 to 7.00 |
| O=C(N[C@H]1CCCC[C@H]2CC[C@@H](C(=O)NCc3ccn4ccnc4c3)N2C1=O)c1cc2cc(C(F)(F)P(=O)(O)O)ccc2s1 [Compound 828] | 5.52 to 6.52 | > 7.00 |
| O=C(/C=C/c1ccc(C(F)(F)P(=O)(O)O)cc1)N[C@H]1CCCC[C@H]2CC[C@@H](C(=O)N3Cc4cnn(-c5ccccc5)c4C3)N2C1=O [Compound 829, (difluoro(4-((E)-3-oxo-3-(((3S,6S,10aS)-5-oxo-3-(1-phenyl-1,4,5,6-tetrahydropyrrolo[3,4-c]pyrazole-5-carbonyl)decahydropyrrolo[1,2-a]azocin-6-yl)amino)prop-1-en-1-yl)phenyl)methyl) phosphonic acid] | 5.52 to 6.52 | 5.00 to 6.00 |
| Cn1ccc([C@@H]2CN(C(=O)[C@@H]3CC[C@@H]4CCC[C@H](NC(=O)c5cc6cc([C@@H](F)P(=O)(O)O)ccc6s5)C(=O)N43)C3(CC3)C2)cc1=O [Compound 831, ((S)-fluoro(2-(((3S,6S,9aS)-3-((R)-6-(1-methyl-2-oxo-1,2-dihydropyridin-4-yl)-4-azaspiro[2.4]heptane-4-carbonyl)-5-oxooctahydro-1H-pyrrolo[1,2-a]azepin-6-yl)carbamoyl)benzo [b]thiophen-5-yl)methyl) phosphonic acid] | 5.52 to 6.52 | 5.00 to 6.00 |
| C[C@H]1C[C@H]2CC[C@@H](C(=O)N3C[C@@H](c4cccnc4)CC34CC4)N2C(=O)[C@@H](NC(=O)c2cc3cc([C@H](F)P(=O)(O)O)ccc3s2)C1 [Compound 834, ((R)-fluoro(2-(((3S,6S,8R,9aR)-8-methyl-5-oxo-3-((R)-6-(pyridin-3-yl)-4-azaspiro[2.4]heptane-4-carbonyl)octahydro-1H-pyrrolo[1,2-a]azepin-6-yl)carbamoyl)benzo [b]thiophen-5-yl)methyl) phosphonic acid] | ≥ 6.52 | 6.00 to 7.00 |
| C[C@H]1C[C@H]2CC[C@@H](C(=O)N3C[C@H](c4ccccc4)[C@@H](C#N)C34CC4)N2C(=O)[C@@H](NC(=O)c2cc3cc([C@H](F)P(=O)(O)O)ccc3s2)C1 [Compound 849, ((R)-(2-(((3S,6S,8R,9aR)-3-((6S,7R)-7-cyano-6-phenyl-4-azaspiro[2.4]heptane-4-carbonyl)-8-methyl-5-oxooctahydro-1H-pyrrolo[1,2-a]azepin-6-yl)carbamoyl)benzo [b]thiophen-5-yl)fluoromethyl) phosphonic acid] | ≥ 6.52 | 5.00 to 6.00 |
| O=C(N[C@H]1CCC[C@H]2CC[C@@H](C(=O)N3CC(c4cnccc4N4CCCC4=O)C3)N2C1=O)c1cc2cc(CP(=O)(O)O)ccc2s1 [Compound 850, ((2-(((3S,6S,9aS)-5-oxo-3-(3-(4-(2-oxopyrrolidin-1-yl)pyridin-3-yl)azetidine-1-carbonyl)octahydro-1H-pyrrolo[1,2-a]azepin-6-yl)carbamoyl)benzo [b]thiophen-5-yl)methyl) phosphonic acid] | 4.52 to 5.52 | 5.00 to 6.00 |
| CN1CCN(c2ccncc2C2CN(C(=O)[C@@H]3CC[C@@H]4CCC[C@H](NC(=O)c5cc6cc([C@@H](F)P(=O)(O)O)ccc6s5)C(=O)N43)C2)C1=O [Compound 851, ((S)-fluoro(2-(((3S,6S,9aS)-3-(3-(4-(3-methyl-2-oxoimidazolidin-1-yl)pyridin-3-yl)azetidine-1-carbonyl)-5-oxooctahydro-1H-pyrrolo[1,2-a]azepin-6-yl)carbamoyl)benzo [b]thiophen-5-yl)methyl) phosphonic acid] | 4.52 to 5.52 | 6.00 to 7.00 |
| O=C(N[C@H]1CCC[C@H]2CC[C@@H](C(=O)N3CC(c4cnccc4N4CC(OC(F)F)C4)C3)N2C1=O)c1cc2cc([C@@H](F)P(=O)(O)O)ccc2s1 [Compound 852, ((S)-(2-(((3S,6S,9aS)-3-(3-(4-(3-(difluoromethoxy)azetidin-1-yl)pyridin-3-yl)azetidine-1-carbonyl)-5-oxooctahydro-1H-pyrrolo[1,2-a]azepin-6-yl)carbamoyl)benzo [b]thiophen-5-yl)fluoromethyl) phosphonic acid] | 5.52 to 6.52 | > 7.00 |
